“Also recorded” adds a separate entry of the source.

For data set [1] the following is noted: cited from earlier work.
For another data set, the system named is P388 leukemia system. The settings on record: mouse; cited from earlier work.
Another data set concerns L1210 leukemia system. The settings on record: mouse; cited from earlier work.
Data set [2] is described as follows: binding of adriamycin to microreservoirs. The data set is classed as physicochemical. Here is the method: With this 2 mg (3.45 μmoles) of adriamycin was used. In the five samples, the amount of phosphatidic acid in the total lipid constituent was varied from zero to 25%. […] The aqueous suspensions were each sonicated at 52° C. for 15 minutes. Each sample was passed down through a 2.5×50 cm Sephadex G-50 gel column to separate free and bound adriamycin.
2875 μmoles of purified soybean phosphatidyl chloine (specific activity 2296 ^3 H dpm/μmole) 720 μmoles of soybean phosphatidic acid and 720 μmoles of cholesteryl oleate (specific activity of 3638 ^14 C dpm/μmole) were dissolved in choloroform and taken to dryness by pumping overnight against a vacuum. The resulting solid material was hydrated with 20 ml of 10 mM of trihydroxymethylamine (pH 9.1) and the liquid was sonicated at 52° C. under a nitrogen atmosphere for 15 minutes. The pH of the solution was lowered to 7.2 and then it was centrifuged for one hour at 100,000 g. 34.9 mg of adriamycin was added to the clear supernatant and it was then allowed to incubate for 30 minutes at room temperature. After this incubation, the ionic strength of the solution was increased to 0.154 M NaCl; and it was passed down a 4.3×37 cm G-50 Sephadex G-50 gel column using 0.154 M NaCl and 10 mM trihydroxymethylamine as the eluting solvent.

Another data set concerns normal mice. Nature of the data set: toxicity of adriamycin in normal mice, survival. The data set is classed as in vivo. As to conditions: 4 mg/kg ip daily for five days, six mice; listed as free adriamycin. Here is the method:
Two dosages levels of the drug were chosen--4 mg/kg and 2 mg/kg. In each case, six normal mice received the injections each day for five days and then they were observed thereafter to determine the number of survivors. The results are plotted in FIG. 16.

Another data set deals with L1210 leukemic cells. Nature of the data set: chemotherapy of L1210 leukemic mice with adriamycin, survival. The settings on record: 4 mg/kg ip, days 1 through 5; day 24; listed as free adriamycin.
Data set [3] in a line: in vitro stability of microreservoirs and liposomes (optical density ratio A400/A600, thin layer chromatograms). The data set is classed as physicochemical. As to conditions: after sonication and centrifugation.
Experimental: Both of the suspensions were then spun at 100,000 g for one hour to remove any undispersed lipid.
Aliquots of 4 ml of each sample were then placed into stoppered curvettes and the samples were incubated at 37° C. At various points in time optical densities of the two solutions at 400 nm and 600 nm were determined. […] Since both structures initially had essentially the same molecular size, the ratio of A400/A600 is an indication of any increase in the particle size due to the breakdown of the structural organization of the liposome.
A short description of data set [4]: plasma kinetics of daunomycin in rats, intravenous. Here is the method: A control sample of free daunomycin at the same concentration and in the same buffer was also prepared.
0.5 ml of blood was taken at various time points from each rat. The plasma was separated from the blood samples and assayed for daunomycin fusing fluorescence. The data thus obtained are plotted in FIG. 10 as a function of time after injection.

The next data set has as its system P388 tumor cells. The settings on record: 4 mg/kg ip daily for 5 days.
The conditions of data set [5]: within two minutes after administration; cited from earlier work.
The conditions of data set [6]: in vivo; cited from earlier work.
A short description of data set [7]: affinity for and efflux of estradiol undecanoate from vesicular and nonvesicular microreservoirs. The data set is classed as physicochemical. Here is the method:
The resulting liquid was sonicated at 40° C. for 20 minutes under a nitrogen atmosphere and passed down a Sepharose 4B Column. […] The material in the void volume of the column consisted of the nonvesicular form, whereas the material in the internal volume consisted of the vesicular form.

The nature of data set [8]: plasma kinetics of imidocarb in rats, tail vein injection. The data set is classed as in vivo. As to conditions: 24 hours (FIG. 24). Here is the method: Plasma samples were taken at various time points and the amount of imidocarb in these samples was determined by measurements of their radio-activity.
Data set [9] in a line: tissue distribution of free imidocarb and microreservoir-borne imidocarb. The data set is classed as in vivo, rats. The settings on record: 4 hours after injection. The source says:
Various tissues, such as muscle, spleen, liver and kidney, were taken from the animals. These tissues were combusted in a Searle combustion apparatus and the resulting ^14 CO2 was collected and counted for radioactivity.

Experimental for L1210 leukemic cells: 72 normal mice were each innoculated with 10^6 L1210 leukemic cells by intraperitoneal injection on day zero. […] The drug in all cases was also given by intraperitoneal injection and the dosages were repeated daily on days 1 through 5. The dosage levels chosen were 4 mg/kg, 2 mg/kg, 1 mg/kg and 0.5 mg/kg.
Experimental for P388 tumor cells: A number of mice were injected intraperitoneally with 1×10^6 P388 tumor cells. […] One group of mice, used as a control, received no drug in any form. Five mice were used for each protocol and two different dosage levels, 4 mg/kg and 2 mg/kg, were used.

Turning to `CCCCC(=O)OCC(=O)C1(O)Cc2c(O)c3c(c(O)c2C(OC2CC(NC(=O)C(F)(F)F)C(O)C(C)O2)C1)C(=O)c1c(OC)cccc1C3=O` (stereo not drawn) [AD 32, N-Trifluoroacetyladriamycin-14-Valerate], the “solubility in aqueous buffer / water” value in data set [1] is given as “totally insoluble in an aqueous buffer”. For the same compound, the antitumor activity result with P388 leukemia system and in the data set on L1210 leukemia system was “significantly greater antitumor activity than adriamycin or daunomycin” each time.
Regarding `COc1cccc2c1C(=O)c1c(O)c3c(c(O)c1C2=O)C[C@@](O)(C(=O)CO)C[C@@H]3O[C@H]1C[C@H](N)[C@H](O)[C@H](C)O1` [adriamycin], the “binding of adriamycin to the microreservoirs relative to daunomycin” value in data set [2] is on record as “does not bind as strongly to the microreservoirs as does, for example, daunomycin”. In addition, the “bound adriamycin vs amount of phosphatidic acid” value in data set [2] (80 μmoles total phospholipid, 20 μmoles cholesteryl oleate, 2 mg adriamycin, pH 7.2) is on record as “increases with increasing amounts of phosphatidic acid”. Besides, the “phosphatidic acid content up to which bound adriamycin increases before levelling off” value in data set [2] (relative to total lipids) is listed as “about 25 mole %”. For the same compound, the “toxicity (survival at 30 days)” value with normal mice is “highly toxic; also recorded: survival of only one mouse”. Besides, in data set [1], the “solubility in aqueous buffer / water” value is “water soluble”. Moreover, the “therapeutic effect / survivors” value in the data set on L1210 leukemic cells was “some therapeutic effect for a short period of time; also recorded: all of the control mice and those receiving the free adriamycin had succumbed to leukemia and/or the toxic effect of the drug”.
For the compound `COc1cccc2c1C(=O)c1c(O)c3c(c(O)c1C2=O)C[C@@](O)(C(C)=O)C[C@@H]3O[C@H]1C[C@H](N)[C@H](O)[C@H](C)O1` [daunomycin], the “degradation by thin layer chromatograms of the centrifugates” value in data set [3] is listed as “no evidence of degradation”. Besides, the “presence in the bloodstream after 3 3/4 hours” value in [4] (printed "33/4 hours", 4 mg/kg iv) is listed as “virtually absent from the bloodstream”. In data set [4] (rat, in vivo, iv, 4 mg/kg), this compound displayed a concentration at 0.25 h of about 400 ng/mL. Besides, in data set [4] (rat, in vivo, iv, 10 mg/kg), the concentration at 1 h is about 500 ng/mL, the concentration at 3 h is about 300 ng/mL and the concentration at 6 h is about 140 ng/mL. Also, in the data set with P388 tumor cells, the “chemotherapeutic effect / toxicity (survivors)” value is on record as “demonstrated a toxicity measurably greater than the tumor cells”. In [5], the “fraction left to reach the target tissue” value was about 5% and the “fraction that has left the bloodstream within two minutes” value is “about 95%”. Further, the toxicity result in data set [6] is recorded as “known to be toxic, particularly since it tends to concentrate in the heart tissues”.
As for `CCCCCCCCCCC(=O)O[C@H]1CC[C@H]2[C@@H]3CCc4cc(O)ccc4[C@H]3CC[C@]12C` [estradiol undecanoate], the “efflux / retention of estradiol undecanoate” value in data set [7] (incubated with unsonicated egg phosphatidyl choline dispersion) is given as “remained associated with both forms of the microreservoirs”. Besides, the “affinity for vesicular vs nonvesicular microreservoirs” value in [7] (ratio of estradiol undecanoate to cholesteryl oleate) is “higher affinity for the vesicular form of the microreservoirs than for the nonvesicular form”. Further, in data set [1], the “solubility in aqueous buffer / water” value is reported as “essentially insoluble in water”.
Consider `O=C(Nc1cccc(C2=NCCN2)c1)Nc1cccc(C2=NCCN2)c1` [imidocarb], for which, in data set [8], the “imidocarb in the bloodstream after 24 hours” value is on record as “virtually none”. Moreover, the “tissue distribution, Kidney” value in [9] (kidney) is 40,194 dpm/gram of tissue. Also, in data set [9] (liver), the “tissue distribution, Liver” value is listed as 27,059 dpm/gram of tissue. Further, in [9] (muscle), the “tissue distribution, Muscle” value is given as 3,985 dpm/gram of tissue. The “tissue distribution, Spleen” value in data set [9] (spleen) is on record as 9,498 dpm/gram of tissue.

(Values after patent US4298594A, “Xenobiotic delivery vehicles, method of forming them and method of using them” (Arthur D. Little, Inc., priority 1980, dated 1981).)
